Results from ChEMBL document CHEMBL1201862, “PubChem BioAssay data set” (2004).
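Five concentrations, 48 hours, 96-well plates. GI50 marks 50% less growth.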 Active and inactive are the calls of the source. Rule as the data show it: active = GI50 up to about 1.1 µM and inactive = higher. *1 amine or outer side, *2 acyl side, *3 side chain or, on linkers, in order; H or OH if unused. Where a SMILES comes first, the peptide text is derived from it. Bridges are numbered along the chain shown (N, C = ends). Roman numbers before positions name the chains, in order. [ ]: non-standard residue; d: D form. Actinocin(9to1) = Cc1c2oc3c(C)ccc(C(=O)[*:1])c3nc-2c(C(=O)[*:2])c(N)c1=O; NMeV = CN[CH](C(=O)O)C(C)C; Sar = CNCC(=O)O

Legend:
Test in all cases: inhibition of tumour cell growth, NCI panel, 48 h
A498 = system: A498
IGROV-1 = system: IGROV-1
KM-20L2 = system: KM-20L2
KM12 = system: KM12
LOX IMVI = system: LOX IMVI
NCI-H226 = system: NCI-H226
OVCAR-5 = system: OVCAR-5
RXF 393 = system: RXF 393
SF-295 = system: SF-295
SN12C = system: SN12C
SNB-75 = system: SNB-75
TK-10 = system: TK-10
U-251 = system: U-251
UACC-62 = system: UACC-62
UO-31 = system: UO-31
EKVX = system: EKVX
SNB-19 = system: SNB-19
Hs-578T = system: Hs-578T
MDA-MB-435 = system: MDA-MB-435
NCI/ADR-RES = system: NCI/ADR-RES

SMILES | GI50 (A498) | GI50 (IGROV-1) | GI50 (KM-20L2) | GI50 (KM12) | GI50 (LOX IMVI) | GI50 (NCI-H226) | GI50 (OVCAR-5) | GI50 (RXF 393) | GI50 (SF-295) | GI50 (SN12C) | GI50 (SNB-75) | GI50 (TK-10) | GI50 (U-251) | GI50 (UACC-62) | GI50 (UO-31) | GI50 (EKVX) | GI50 (SNB-19) | GI50 (Hs-578T) | GI50 (MDA-MB-435) | GI50 (NCI/ADR-RES)
c1ccc2cc(C3NCCc4nc[nH]c43)ccc2c1 (stereo unspecified) | 25.9 µM (inactive) | > 100 µM (inactive) | 42.7 µM (inactive) | 17.3 µM (inactive) | 71.6 µM (inactive) | > 100 µM (inactive) | > 100 µM (inactive) | 61.1 µM (inactive) | 68.5 µM (inactive) | 97.5 µM (inactive) | 46.2 µM (inactive) | 28 µM (inactive) | 90.8 µM (inactive) | 55.7 µM (inactive) | 35.8 µM (inactive) |  |  |  |  | 
COc1ccc(N2C(=O)C3CC(c4ccc(C)cc4)c4c([nH]c5ccccc45)C3C2=O)cc1 (stereo unspecified) | 30.2 µM (inactive) | 38 µM (inactive) | 10.9 µM (inactive) | > 41.1 µM (inactive) | 6.92 µM (inactive) | 9.53 µM (inactive) | > 72.3 µM (inactive) |  | > 48.8 µM (inactive) | 8.87 µM (inactive) | 18.4 µM (inactive) | 36.5 µM (inactive) | 10 µM (inactive) | > 100 µM (inactive) | > 47.2 µM (inactive) | > 63.5 µM (inactive) | 12.4 µM (inactive) |  |  | 
NCC(NC(=O)OCc1ccccc1)C(=O)O (stereo unspecified) | > 50 µM (inactive) | > 50 µM (inactive) | > 50 µM (inactive) | > 50 µM (inactive) | > 50 µM (inactive) | > 50 µM (inactive) | > 50 µM (inactive) |  | > 50 µM (inactive) | > 50 µM (inactive) | > 50 µM (inactive) | > 50 µM (inactive) | > 50 µM (inactive) | > 50 µM (inactive) | > 50 µM (inactive) | > 50 µM (inactive) | > 50 µM (inactive) |  |  | 
COc1nc2c(c(O)c(C)c(=O)n2OC2OC(COC(C)=O)C(OC(C)=O)C(OC(C)=O)C2OC(C)=O)c(=O)n1C (stereo unspecified) |  | > 100 µM (inactive) | > 100 µM (inactive) | > 100 µM (inactive) | > 100 µM (inactive) | > 100 µM (inactive) | > 100 µM (inactive) | > 100 µM (inactive) | > 100 µM (inactive) | > 100 µM (inactive) | > 100 µM (inactive) | > 100 µM (inactive) | > 100 µM (inactive) | > 100 µM (inactive) | > 100 µM (inactive) | > 100 µM (inactive) | > 100 µM (inactive) |  |  | 
Cc1ccccc1N(CCC#N)C1=NN(C(=O)CC(=O)Nc2ccccc2)C(c2ccccc2)C1 (stereo unspecified) |  | > 100 µM (inactive) | > 100 µM (inactive) | > 100 µM (inactive) |  | > 100 µM (inactive) | > 100 µM (inactive) | > 100 µM (inactive) | > 100 µM (inactive) | > 100 µM (inactive) | 35 µM (inactive) |  | > 100 µM (inactive) | > 100 µM (inactive) | > 100 µM (inactive) | > 100 µM (inactive) | > 100 µM (inactive) |  |  | 
CC(=O)OC1CC2(C)OC(Cc3ccccc32)O1 (stereo unspecified) |  | > 100 µM (inactive) | > 100 µM (inactive) | > 100 µM (inactive) | > 100 µM (inactive) | > 100 µM (inactive) |  | > 100 µM (inactive) | > 100 µM (inactive) | > 100 µM (inactive) | 65.9 µM (inactive) | > 100 µM (inactive) | > 100 µM (inactive) | > 100 µM (inactive) | > 100 µM (inactive) | > 100 µM (inactive) | > 100 µM (inactive) |  |  | 
Cc1ccc(-c2cc(=O)c3cc(C)c(C)c(C(=O)O)c3o2)cc1 | > 100 µM (inactive) | > 100 µM (inactive) | > 100 µM (inactive) | > 100 µM (inactive) | > 100 µM (inactive) |  | > 100 µM (inactive) |  | > 100 µM (inactive) | > 100 µM (inactive) | 47.9 µM (inactive) | > 100 µM (inactive) | > 100 µM (inactive) | > 100 µM (inactive) | > 100 µM (inactive) | > 100 µM (inactive) | > 100 µM (inactive) |  |  | 
C=CCNC(=S)NNC(=O)c1c(C)nc2sccn12 |  | > 100 µM (inactive) | > 100 µM (inactive) | > 100 µM (inactive) | > 100 µM (inactive) | > 100 µM (inactive) | > 100 µM (inactive) | > 100 µM (inactive) | > 100 µM (inactive) | > 100 µM (inactive) |  | > 100 µM (inactive) | > 100 µM (inactive) | > 100 µM (inactive) |  | > 100 µM (inactive) | > 100 µM (inactive) |  |  | 
Cc1ccc(/C=C2\CCCC(C(NO)c3ccc(C)cc3)C2=NO)cc1 (stereo unspecified) | 49.8 µM (inactive) | > 100 µM (inactive) | 21.7 µM (inactive) | 21.2 µM (inactive) |  |  |  | 20.6 µM (inactive) |  | 20.7 µM (inactive) | 28 µM (inactive) | > 100 µM (inactive) | 55.2 µM (inactive) | 89.5 µM (inactive) | 57.4 µM (inactive) | 44.4 µM (inactive) | 83.6 µM (inactive) |  |  | 
CCc1ccccc1NC(=O)C1=C(C)NC(C)=C(C(=O)Nc2c(CC)cccc2CC)C1c1ccc2c(c1)OCO2 (stereo unspecified) |  | 25.4 µM (inactive) | 17.6 µM (inactive) | 16.1 µM (inactive) | 16.9 µM (inactive) | 19.1 µM (inactive) | 18.2 µM (inactive) | 12.4 µM (inactive) | 20.3 µM (inactive) | 26 µM (inactive) | 21.8 µM (inactive) | 22.3 µM (inactive) | 14.6 µM (inactive) |  | 16.2 µM (inactive) | 24.2 µM (inactive) | 24.9 µM (inactive) |  |  | 
CCCCN(CCCC)C(=O)C(=O)C(C)C(=O)CC (stereo unspecified) |  | > 100 µM (inactive) | > 100 µM (inactive) | > 100 µM (inactive) | > 100 µM (inactive) | > 100 µM (inactive) | > 100 µM (inactive) |  | > 100 µM (inactive) | > 100 µM (inactive) | > 100 µM (inactive) | > 100 µM (inactive) | > 100 µM (inactive) | > 100 µM (inactive) | > 100 µM (inactive) |  | > 100 µM (inactive) |  |  | 
O=C(c1ccccc1)c1c(CNCc2ccccc2)n(C(=O)c2ccccc2)c2ccccc12 |  | > 100 µM (inactive) | 40 µM (inactive) | 18.9 µM (inactive) |  | 29.6 µM (inactive) | > 100 µM (inactive) |  | 9.51 µM (inactive) |  | 2.84 µM (inactive) | > 100 µM (inactive) | 20.8 µM (inactive) | 95.3 µM (inactive) | 8.95 µM (inactive) |  | 22.8 µM (inactive) |  |  | 
Cc1c2oc3c(C)ccc(C(=O)NC4C(=O)NC(C(C)C)C(=O)N5CCCC5C(=O)N(C)CC(=O)N(C)C(C(C)C)C(=O)OC4C)c3nc-2c(C(=O)NC2C(=O)NC(C(C)C)C(=O)N3CCCC3C(=O)N(C)CC(=O)N(C)C(C(C)C)C(=O)OC2C)c(N)c1=O (stereo unspecified) (I: TVP[Sar][NMeV] / II: TVP[Sar][NMeV]; ester I:1-I:C, II:1-II:C; linker I:N-II:N via Actinocin(9to1); configuration not given here) | 0.00169 µM (active) | 0.00011 µM (active) |  | < 0.0001 µM (active) | < 0.0001 µM (active) | 0.000891 µM (active) | 0.00181 µM (active) | 0.00136 µM (active) | 0.000522 µM (active) | 0.00011 µM (active) | < 0.0001 µM (active) | 0.0101 µM (active) | < 0.0001 µM (active) | < 0.0001 µM (active) | 0.0152 µM (active) | 0.00416 µM (active) | 0.000112 µM (active) | 0.000143 µM (active) | 0.000461 µM (active) | 0.0499 µM (active)
CC(C)=CCC[C@@H](C)[C@H]1CC[C@@]2(C)[C@@H]3CC[C@H]4C(C)(C)[C@@H](O)CC[C@@]45C[C@@]35CC[C@]12C [CYCLOARTENOL] | 41.2 µM (inactive) | 16.1 µM (inactive) |  | > 56.8 µM (inactive) | 21 µM (inactive) | 26.5 µM (inactive) | > 54.2 µM (inactive) | 18 µM (inactive) | > 48.2 µM (inactive) | 20 µM (inactive) | > 55.7 µM (inactive) | > 100 µM (inactive) | 15.5 µM (inactive) | 44.4 µM (inactive) | > 40.7 µM (inactive) | 37.2 µM (inactive) | 58.7 µM (inactive) | 33.4 µM (inactive) | > 41.9 µM (inactive) | 23.4 µM (inactive)
Oc1ccc(Cl)cc1Sc1cc(Cl)ccc1O [FENTICLOR] | 11.2 µM (inactive) | 15.1 µM (inactive) |  | 17.5 µM (inactive) | 8.55 µM (inactive) | 20.5 µM (inactive) | 13.4 µM (inactive) | 14.2 µM (inactive) | 13.5 µM (inactive) | 10.5 µM (inactive) | 16.2 µM (inactive) | 17.1 µM (inactive) | 8.53 µM (inactive) | 5.66 µM (inactive) | 6.78 µM (inactive) | 15.5 µM (inactive) | 12.9 µM (inactive) | 4.98 µM (inactive) | 10.9 µM (inactive) | 12.5 µM (inactive)
O=C1c2ccccc2-n2c1nc1ccccc1c2=O [TRYPTANTHRIN] | 18.2 µM (inactive) | 23 µM (inactive) |  | 6.62 µM (inactive) | 4.44 µM (inactive) | 30.9 µM (inactive) | 16 µM (inactive) | 28.1 µM (inactive) | 4.29 µM (inactive) | 12.6 µM (inactive) | 30.8 µM (inactive) | > 43.3 µM (inactive) | 3.34 µM (inactive) | 3.69 µM (inactive) | 5.06 µM (inactive) | 13.4 µM (inactive) | 25 µM (inactive) | 17.1 µM (inactive) | 1.85 µM (inactive) | 22.3 µM (inactive)
